From PubChem BioAssay (NCI)
“And” between values parts separate entries of the source, which are not always exact repeats. Identical values can stand only once.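 A five-concentration, 48-hour dose response in 96-well plates underlies each endpoint, interpolated linearly between surrounding concentrations. Abbreviation: GI50, concentration required for 50% inhibition of growth. TGI marks complete inhibition of growth.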

What was measured:
Test in all cases: growth of human tumour cells (NCI), 48 h
786-0 renal = tested on: 786-0 renal
NCI-H226 lung = tested on: NCI-H226 lung
MDA-MB-231 breast = tested on: MDA-MB-231 breast
BT-549 breast = tested on: BT-549 breast
NCI-H460 lung = tested on: NCI-H460 lung
K-562 leukemia = tested on: K-562 leukemia
UO-31 renal = tested on: UO-31 renal
HS 578T breast = tested on: HS 578T breast
HCT-116 colon = tested on: HCT-116 colon
NCI-H522 lung = tested on: NCI-H522 lung

| SMILES | TGI (786-0 renal) | TGI (NCI-H226 lung) | TGI (MDA-MB-231 breast) | TGI (BT-549 breast) | TGI (NCI-H460 lung) | TGI (K-562 leukemia) | TGI (UO-31 renal) | TGI (HS 578T breast) | TGI (HCT-116 colon) | TGI (NCI-H522 lung) | GI50 (NCI-H226 lung) [µM] | GI50 (MDA-MB-231 breast) | GI50 (BT-549 breast) [µM] | GI50 (K-562 leukemia) | GI50 (HCT-116 colon) [µM] | GI50 (NCI-H522 lung) [µM] |
| --- | --- | --- | --- | --- | --- | --- | --- | --- | --- | --- | --- | --- | --- | --- | --- | --- |
| CCc1nn(CN2CCN(C)CC2)c(=S)n1/N=C\c1ccc(-c2ccc([N+](=O)[O-])cc2)o1 | > 100 µM | 86.4 µM | > 100 µM | > 100 µM | > 100 µM | > 100 µM | > 100 µM | > 100 µM | > 100 µM | > 100 µM |  |  |  |  |  |  |
| CCOC(=O)c1cccc(NC(=O)CCl)c1 | 4.02 µM | 26 µM | 14.5 µM | 17.9 µM | 5.37 µM | 29 µM | 13.7 µM | 11 µM | 8.29 µM | 3.49 µM |  |  |  |  |  |  |
| CCCCNC1CCC2(SCCS2)c2[nH]c3ccccc3c21 (stereo unspecified) | 80 µM | > 73.7 µM | > 62.6 µM | > 100 µM | > 100 µM | 55.1 µM | > 89.4 µM | > 82.1 µM | 50.1 µM | 23 µM |  |  |  |  |  |  |
| c1ccc(CNC2CC(NCc3ccccn3)CC(NCc3ccccn3)C2)nc1 (stereo unspecified) | 9.95 µM and 5.87 µM and 6.09 µM | 6.07 µM and 7.07 µM and 5.39 µM | 5.21 µM and 12.5 µM and 4.56 µM | 17.1 µM and 10.5 µM and 38 µM | 7.07 µM and 12 µM | 34.6 µM and 25 µM and 28.3 µM | 70.8 µM and > 25 µM and > 100 µM | 53.3 µM and 25 µM and 85.5 µM | 5.27 µM and 7.2 µM and 3.68 µM | 6.36 µM and 12.2 µM and 4.68 µM | 2.77 | 2.13 µM and 5.66 µM and 2.08 µM | 18.2 | 3.45 µM and 12.4 µM and 3.71 µM | 1.86 | 2.16 |
| CN1C/C(=C\c2cccs2)C2=NC(=S)NC(c3cccs3)C2C1 (stereo unspecified) | > 100 µM | > 100 µM | > 100 µM | > 100 µM | > 100 µM | > 100 µM | > 100 µM | > 100 µM | > 100 µM | > 100 µM |  |  |  |  |  |  |
| COc1ccc(-c2nc(N)c(C#N)c3c2CCS(=O)(=O)c2ccc(C)cc2-3)cc1OC | > 100 µM | > 100 µM | > 100 µM | > 100 µM | > 100 µM | 29.4 µM | > 100 µM | 77.6 µM | > 100 µM | 25.1 µM |  |  |  |  |  |  |
| Cc1ccc(S(=O)(=O)c2scc(-c3ccccc3)c2C)cc1 | > 100 µM | > 100 µM | > 100 µM | > 100 µM | > 100 µM | > 100 µM | > 100 µM | > 100 µM | > 100 µM | > 100 µM |  |  |  |  |  |  |
| O=C(O)[C@H]1[C@@H](C2CCCCC2)O[C@@H](C2CCCCC2)O[C@H]1C(F)(F)F | 33.5 µM | 41.6 µM | 36.2 µM | 98.6 µM | 48.4 µM | > 100 µM | 66.2 µM | 58.8 µM | > 100 µM | > 100 µM |  |  |  |  |  |  |
